Data: patent publication US20210255193A1, “LYSINE REACTIVE PROBES AND USES THEREOF” (The Scripps Research Institute, priority 2017, published 2021)

Legend:
Test in all cases: direct labeling of recombinantly expressed proteins by gel-based ABPP (WT vs lysine mutant)
Type in all cases: binding
[1] = molecular target: T1, TPMT (Homo sapiens, UniProt P51580); conditions: TPMT K32, KR mutant; 10 μM probe, 1 h
T1 construct: expressed in transfected cells; host or cells: HEK 293T
T1 sequence (P51580 1-245): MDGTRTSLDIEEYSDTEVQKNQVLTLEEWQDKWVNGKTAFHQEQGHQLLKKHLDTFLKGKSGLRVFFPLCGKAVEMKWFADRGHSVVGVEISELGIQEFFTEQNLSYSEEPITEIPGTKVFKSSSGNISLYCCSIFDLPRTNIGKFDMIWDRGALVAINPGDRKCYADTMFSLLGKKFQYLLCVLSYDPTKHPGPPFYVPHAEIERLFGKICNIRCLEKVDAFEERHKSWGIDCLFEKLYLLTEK
Source text: (§1) Subcloning and mutagenesis. Unless noted below, genes were amplified from cDNA prepared from low passage HEK 293T cells using the Ribozol RNA extraction reagent (Amresco) and the iScript Reverse Transcription Supermix kit (Bio-Rad). For the following proteins cDNA clones were used for amplification instead: PFKP (5180268, Dharmacon), HK1 (BC008730, transomic), SIN3A (BC137098, transomic), G6PD (BC000337, transomic) and TGIF1 (BC031268, transomic). Mouse CARM1 in pFLAG-CMV-6c was a kind gift from the Mowen lab (TSRI). NUDT2 was obtained as synthesized gene (IDT). DNA was amplified with custom forward and reverse primers using phusion polymerase (NEB, M0530S), digested with the indicated restriction enzyme and ligated into pFLAG-CMV-6c or pRK5 with the appropriate affinity tag. Lysine mutants were generated using QuikChange site-directed mutagenesis using Phusion® High-Fidelity DNA Polymerase and primers containing the desired mutations and their respective complements. The cloning of TTR and its K35A mutant has been described in Choi et al., “Chemoselective small molecules that covalently modify one lysine in a non-enzyme protein in plasma,” Nat. Chem. Biol. 6, 133-139 (2010). TTR was expressed in E. coli and purified as described. For gel-based experiments 1 μM TTR was added into 1 mg ml^−1 soluble MDA-MB-231 lysate.
(§2) Recombinant expression of proteins by transient transfection. HEK 293T cells were grown to 50% confluency in 10 ml DMEM supplemented with 10% fetal bovine serum (FBS), penicillin, streptomycin and glutamine in 10 cm tissue culture dishes. 3 μg of DNA was diluted in 500 μL DMEM and 30 μL of PEI (MW 40,000, 1 mg ml^−1, Polysciences) were added. The mixture was incubated at room temperature for 30 min and added dropwise to the cells. Cells were grown for 48 h at 37° C. with 5% CO2. Cells were washed with cold PBS, scraped with cold PBS and cell pellets were isolated by centrifugation (1,400 g, 3 min, 4° C.), and stored at −80° C. until use. Cell pellets were resuspended in PBS, lysed by sonication and fractionated (100,000 g, 45 min) to yield soluble and membrane fractions. The soluble fraction was adjusted to a final protein concentration of 1 mg ml^−1 for gel-based ABPP experiments.
(§3) Direct labeling of recombinantly expressed proteins by gel-based ABPP. 50 μL of soluble HEK 293T proteome (1 mg ml^−1) expressing the respective protein (WT or KR mutant) or transfected with an empty vector were treated with 10 μM of the indicated probe for 1 h at room temperature. The samples were analyzed as described in the previous section. For quantification of relative labeling of the different protein variants, the intensity of labeling was determined by quantifying the integrated optical intensity of the bands using ImageLab 5.2.1 software (BioRad).

[2] = molecular target: T2, GSTO1 (Homo sapiens, UniProt P78417); conditions: GSTO1 K57, KR mutant; 10 μM probe, 1 h
T2 construct: expressed in transfected cells; host or cells: HEK 293T
T2 sequence (P78417 1-241): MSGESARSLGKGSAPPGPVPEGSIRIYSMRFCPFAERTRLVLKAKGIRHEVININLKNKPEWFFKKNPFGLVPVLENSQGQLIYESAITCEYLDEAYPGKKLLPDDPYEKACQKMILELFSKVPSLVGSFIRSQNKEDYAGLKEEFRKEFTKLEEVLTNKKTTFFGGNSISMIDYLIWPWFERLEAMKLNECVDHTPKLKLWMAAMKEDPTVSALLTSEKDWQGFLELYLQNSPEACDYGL
Source text: as §1, §2, §3

[3] = molecular target: T3, PFKL (Homo sapiens, UniProt P17858); conditions: PFKL K676, KA mutant; 10 μM probe, 1 h
T3 construct: expressed in transfected cells; host or cells: HEK 293T
T3 sequence (P17858 1-780): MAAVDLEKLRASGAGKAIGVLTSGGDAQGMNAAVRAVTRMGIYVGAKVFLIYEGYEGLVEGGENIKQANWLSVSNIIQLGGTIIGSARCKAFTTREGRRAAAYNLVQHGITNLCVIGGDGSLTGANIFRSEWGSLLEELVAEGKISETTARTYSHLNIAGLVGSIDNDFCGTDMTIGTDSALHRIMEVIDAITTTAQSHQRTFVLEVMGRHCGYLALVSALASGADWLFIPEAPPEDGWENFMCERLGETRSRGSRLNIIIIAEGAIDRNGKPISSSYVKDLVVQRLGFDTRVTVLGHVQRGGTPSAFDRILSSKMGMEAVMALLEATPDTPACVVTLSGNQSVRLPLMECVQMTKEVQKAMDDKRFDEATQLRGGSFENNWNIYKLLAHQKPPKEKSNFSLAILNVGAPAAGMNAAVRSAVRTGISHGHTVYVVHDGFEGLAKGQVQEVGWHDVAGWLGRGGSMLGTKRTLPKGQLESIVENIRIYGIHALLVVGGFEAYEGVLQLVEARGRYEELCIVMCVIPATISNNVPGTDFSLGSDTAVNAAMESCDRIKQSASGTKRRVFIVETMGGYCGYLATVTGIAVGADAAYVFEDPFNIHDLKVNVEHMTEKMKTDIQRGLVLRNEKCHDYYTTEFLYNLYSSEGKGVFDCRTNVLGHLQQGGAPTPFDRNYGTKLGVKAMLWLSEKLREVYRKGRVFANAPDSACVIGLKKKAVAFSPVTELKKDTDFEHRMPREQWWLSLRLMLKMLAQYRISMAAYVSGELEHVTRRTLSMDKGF
Source text: as §1, §2, §3

Compound	labeling of WT vs mutant protein by probe [1]	labeling of WT vs mutant protein by probe [2]	labeling of WT vs mutant protein by probe [3]
C#CCCC(=O)Oc1c(F)c(F)c(S(=O)(=O)[O-])c(F)c1F.[Na+] [probe 1, reference compound]	HD (the WT labeled more than the mutant (>4x difference quantified))	PD (the WT labeled more than the mutant (>2x difference quantified))	PD (the WT labeled more than the mutant (>2x difference quantified))
C#CCCC(=O)Oc1c(F)c(F)c(F)c(F)c1F [probe 6, Pentafluorophenyl 4-pentynoate]	ND (the WT did not label more than the mutant (<2x difference quantified))	ND (the WT did not label more than the mutant (<2x difference quantified))	–
C#Cc1ccc(C(=O)Oc2ccccc2[N+](=O)[O-])cc1 [probe 10, 2-Nitrophenyl 4-ethynylbenzoate]	–	–	PD (the WT labeled more than the mutant (>2x difference quantified))
C#Cc1ccc(C(=O)Oc2c(F)c(F)cc(F)c2F)cc1 [probe 12, 2,3,5,6-Tetrafluorophenyl 4-ethynylbenzoate]	ND (the WT did not label more than the mutant (<2x difference quantified))	ND (the WT did not label more than the mutant (<2x difference quantified))	PD (the WT labeled more than the mutant (>2x difference quantified))
C#Cc1ccc(C(=O)Oc2c(F)c(F)c(F)c(F)c2F)cc1 [probe 13, Pentafluorophenyl 4-ethynylbenzoate]	ND (the WT did not label more than the mutant (<2x difference quantified))	ND (the WT did not label more than the mutant (<2x difference quantified))	PD (the WT labeled more than the mutant (>2x difference quantified))
Cc1cc(C)n2c1C=C1C=CC(CCC(=O)Oc3c(F)c(F)c(S(=O)(=O)[O-])c(F)c3F)=[N+]1[B-]2(F)F.[Na+] [probe 18, reference compound]	HD (the WT labeled more than the mutant (>4x difference quantified))	ND (the WT did not label more than the mutant (<2x difference quantified))	PD (the WT labeled more than the mutant (>2x difference quantified))
